Key:
[1] = test system: winter wheat (Vershin variety); experiment: Winter wheat seed treatment with BHMPA salts: germination energy and germination rate; assay type: in vivo
Method: Control—Soaking Seeds in Water;
(§1) Experimental versions—soaking seeds in BHMPA solutions and solutions of BHMPA Ca, Mg, Na, Co, Mn, Cu, and Zn salts at 1·10^−6-1·10^−12% concentrations (doses). The studies were conducted in laboratory in Petri dishes; seed bed—two layers of filter paper. 50 seeds soaked in water (control) and in the solutions of the tested compounds (experimental) were placed into each dish. Wheat, corn, and rice seeds were exposed for one hour.
Analysis was conducted according to the government standards GOST 12038-84 “Crop seeds. Technical conditions for determining the germination energy and germination rate”, GOST 12044-93 “Crop seeds. Methods for determining disease contamination.”
(§2) Seed germination energy and rate were calculated in percent as an arithmetic mean of the four experimental results (germination energy on the 4th day, wheat germination on the 8th day, rice and corn germination—on the 7th day). Germination was determined based on the germinating power indicators (length of the roots and sprouts and their wet and dry mass per 100 shoots).
(§3) The effect of pre-sowing seed treatment with the claimed BHMPA salts of biogenic metals was studied on winter wheat (Vershin variety), corn (Krasnodar 385 MV variety), and rice (Diamant variety).

[2] = test system: corn (Krasnodar 385 MV variety); experiment: Corn seed treatment with BHMPA salts: germinating power; assay type: in vivo
Method: as §1, §2, §3
The above data describe the seed viability only at the initial stage of germination, while the germination ability at the later stage of germination is defined by the initial germinating power. The method for the determination of the germinating power comprises measuring the height of the sprouts and primary roots, as well as the biomass and the dry mass thereof per 100 seedlings. [M. A. Kartuzova. Initial Germinating Power as Method of Biological Assessment of Seed Quality. Selection and Seed Farming, #2, 1953].

[3] = winter wheat Vershin, 1·10^−6% solution
[4] = winter wheat Vershin, 1·10^−7% solution
[5] = winter wheat Vershin, 1·10^−8% solution
[6] = winter wheat Vershin, 1·10^−9% solution
[7] = winter wheat Vershin, 1·10^−10% solution
[8] = winter wheat Vershin, 1·10^−11% solution
[9] = winter wheat Vershin, 1·10^−12% solution
[10] = winter wheat, comparative study vs Melaphen, 1·10^−12% solution
[11] = corn seeds, solution concentration 1 · 10^−10%

## O=P([O-])(CO)CO.O=P([O-])(CO)CO.[Ca+2] [Ca-salt, Calcium BHMPA Salt]
[1]; [3]
  Germination energy: 85.3%
  Germination rate: 88.0%
[1]; [4]
  Germination energy: 90.8%
  Germination rate: 94.3%
[1]; [5]
  Germination energy: 80.9%
  Germination rate: 84.0%
[1]; [6]
  Germination energy: 81.2%
  Germination rate: 85.3%
[1]; [7]
  Germination energy: 86.1%
  Germination rate: 88.0%
[1]; [8]
  Germination energy: 87.0%
  Germination rate: 89.3%
[1]; [9]
  Germination energy: 88.9%
  Germination rate: 92.0%
[1]; [10]
  Germination energy: 87.0%
  Germination rate: 93.7%
[2]; corn
  optimum concentration for treating corn seeds before sowing: 1·10^−10%
[2]; [11]
  Length, root: 6.6 cm
  Length, root, + % to control: 12%
  Length, sprout: 3.2 cm
  Length, sprout, + % to control: 18.5%
  Mass, dry, root: 2.03 g/100 plantlings
  Mass, dry, root, + % to control: 15%
  Mass, dry, sprout: 1.47 g/100 plantlings
  Mass, dry, sprout, + % to control: 8%
  Mass, wet, root: 9.63 g/100 plantlings
  Mass, wet, root, + % to control: 10%
  Mass, wet, sprout: 8.59 g/100 plantlings
  Mass, wet, sprout, + % to control: 21%
[2]; corn, 1·10^−6% solution
  Length, root: 4.2 cm
  Length, root, + % to control: −7%
  Length, sprout: 2.5 cm
  Length, sprout, + % to control: −4%
  Mass, dry, root: 1.09 g/100 plantlings
  Mass, dry, root, + % to control: −2%
  Mass, dry, sprout: 0.63 g/100 plantlings
  Mass, dry, sprout, + % to control: −9%
  Mass, wet, root: 7.30 g/100 plantlings
  Mass, wet, root, + % to control: −2.5%
  Mass, wet, sprout: 4.21 g/100 plantlings
  Mass, wet, sprout, + % to control: −6%
[2]; corn, 1·10^−6%, 1·10^−7% and 1·10^−12% solutions
  difference from the control in germinating power: rather insignificant
[2]; corn, 1·10^−7% solution
  Length, root: 4.6 cm
  Length, root, + % to control: 2%
  Length, sprout: 2.7 cm
  Length, sprout, + % to control: 4%
  Mass, dry, root: 1.20 g/100 plantlings
  Mass, dry, root, + % to control: 8%
  Mass, dry, sprout: 0.72 g/100 plantlings
  Mass, dry, sprout, + % to control: 4%
  Mass, wet, root: 7.75 g/100 plantlings
  Mass, wet, root, + % to control: 3%
  Mass, wet, sprout: 4.67 g/100 plantlings
  Mass, wet, sprout, + % to control: 5%
[2]; corn, 1·10^−8% solution
  Length, root: 4.8 cm
  Length, root, + % to control: 7%
  Length, sprout: 2.8 cm
  Length, sprout, + % to control: 8%
  Mass, dry, root: 1.24 g/100 plantlings
  Mass, dry, root, + % to control: 12%
  Mass, dry, sprout: 0.85 g/100 plantlings
  Mass, dry, sprout, + % to control: 23%
  Mass, wet, root: 8.13 g/100 plantlings
  Mass, wet, root, + % to control: 8.5%
  Mass, wet, sprout: 4.84 g/100 plantlings
  Mass, wet, sprout, + % to control: 8.5%
[2]; corn, 1·10^−9% solution
  Length, root: 5.2 cm
  Length, root, + % to control: 15.5%
  Length, sprout: 3.0 cm
  Length, sprout, + % to control: 15%
  Mass, dry, root: 1.26 g/100 plantlings
  Mass, dry, root, + % to control: 13.5%
  Mass, dry, sprout: 0.96 g/100 plantlings
  Mass, dry, sprout, + % to control: 39%
  Mass, wet, root: 9.18 g/100 plantlings
  Mass, wet, root, + % to control: 22.5%
  Mass, wet, sprout: 4.99 g/100 plantlings
  Mass, wet, sprout, + % to control: 12%
[2]; corn, 1·10^−10% solution
  Length, root: 5.4 cm
  Length, root, + % to control: 20%
  Length, sprout: 3.2 cm
  Length, sprout, + % to control: 23%
  Mass, dry, root: 1.34 g/100 plantlings
  Mass, dry, root, + % to control: 21%
  Mass, dry, sprout: 1.23 g/100 plantlings
  Mass, dry, sprout, + % to control: 78%
  Mass, wet, root: 9.82 g/100 plantlings
  Mass, wet, root, + % to control: 31%
  Mass, wet, sprout: 5.61 g/100 plantlings
  Mass, wet, sprout, + % to control: 26%
[2]; corn, 1·10^−11% solution
  Length, root: 5.2 cm
  Length, root, + % to control: 15.5%
  Length, sprout: 2.9 cm
  Length, sprout, + % to control: 11.5%
  Mass, dry, root: 1.30 g/100 plantlings
  Mass, dry, root, + % to control: 17%
  Mass, dry, sprout: 1.09 g/100 plantlings
  Mass, dry, sprout, + % to control: 58%
  Mass, wet, root: 9.44 g/100 plantlings
  Mass, wet, root, + % to control: 26%
  Mass, wet, sprout: 5.15 g/100 plantlings
  Mass, wet, sprout, + % to control: 15%
[2]; corn, 1·10^−12% solution
  Length, root: 4.6 cm
  Length, root, + % to control: 2%
  Length, sprout: 2.7 cm
  Length, sprout, + % to control: 4%
  Mass, dry, root: 1.23 g/100 plantlings
  Mass, dry, root, + % to control: 11%
  Mass, dry, sprout: 0.81 g/100 plantlings
  Mass, dry, sprout, + % to control: 17%
  Mass, wet, root: 8.65 g/100 plantlings
  Mass, wet, root, + % to control: 15%
  Mass, wet, sprout: 4.73 g/100 plantlings
  Mass, wet, sprout, + % to control: 6%

— patent US10781224B2, “Bis(oxymethyl)phosphinic acid and biogenic metal salts thereof as regulators of plant growth and development” (priority 2016, dated 2020)
